Data taken from PubChem BioAssay AID1963832 (Molecular Pharmacology Branch, DTP, NCI, 2024).

System: 885724-159-R-J1-PDC complex spheroid viability
Assay: Anticancer human tumor 885724-159-R-J1-PDC patient-derived pancreatic adenocarcinoma cell line growth inhibition [POLQ]
Conditions: for IC50: curve of first compound; for viability, T/C: stronger effect = lower value
Outline: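 Growth inhibition in 3D: complex spheroids (tumor PDC, HUVEC, MSC) treated with POLQ inhibitor combinations; where Cmax unknown, highest tested concentration 10 microM, except SN-38 at 1 microM.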

[1] = second compound 0.0316 µM, first compound 0.0316 µM
[2] = second compound 0.0316 µM, first compound 0.1 µM
[3] = second compound 0.0316 µM, first compound 0.316 µM
[4] = second compound 0.0316 µM, first compound 1 µM
[5] = second compound 0.1 µM, first compound 0.0316 µM
[6] = second compound 0.1 µM, first compound 0.1 µM
[7] = second compound 0.1 µM, first compound 0.316 µM
[8] = second compound 0.1 µM, first compound 1 µM
[9] = second compound 0.316 µM, first compound 0.0316 µM
[10] = second compound 0.316 µM, first compound 0.1 µM
[11] = second compound 0.316 µM, first compound 0.316 µM
[12] = second compound 0.316 µM, first compound 1 µM
[13] = second compound 1 µM, first compound 0.0316 µM
[14] = second compound 1 µM, first compound 0.1 µM
[15] = second compound 1 µM, first compound 0.316 µM
[16] = second compound 1 µM, first compound 1 µM
[17] = second compound 3.16 µM, first compound 0.0316 µM
[18] = second compound 3.16 µM, first compound 0.1 µM
[19] = second compound 3.16 µM, first compound 0.316 µM
[20] = second compound 3.16 µM, first compound 1 µM
[21] = second compound 10 µM, first compound 0.0316 µM
[22] = second compound 10 µM, first compound 0.1 µM
[23] = second compound 10 µM, first compound 0.316 µM
[24] = second compound 10 µM, first compound 1 µM
[25] = second compound 0.0316 µM, first compound 3.16 µM
[26] = second compound 0.0316 µM, first compound 10 µM
[27] = second compound 0.1 µM, first compound 3.16 µM
[28] = second compound 0.1 µM, first compound 10 µM
[29] = second compound 0.316 µM, first compound 3.16 µM
[30] = second compound 0.316 µM, first compound 10 µM
[31] = second compound 1 µM, first compound 3.16 µM
[32] = second compound 1 µM, first compound 10 µM
[33] = second compound 3.16 µM, first compound 3.16 µM
[34] = second compound 3.16 µM, first compound 10 µM
[35] = second compound 10 µM, first compound 3.16 µM
[36] = second compound 10 µM, first compound 10 µM
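Also: spheroids exposed to compounds for 7 days.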

`C=CCn1c(=O)c2cnc(Nc3ccc(N4CCN(C)CC4)cc3)nc2n1-c1cccc(C(C)(C)O)n1` + Nc1ccc(C#CCN(C(=O)Cc2ncc(C(F)(F)F)cc2C(F)(F)F)c2ccc(F)cc2)nn1 gave an IC50 (second compound 0.0316 µM) of 762 nM, an IC50 (second compound 0.1 µM) of 667 nM and an IC50 (second compound 0.316 µM) of 630 nM. The IC50 (second compound 1 µM) was > 1000 nM, the IC50 (second compound 3.16 µM) was 779 nM and the IC50 (second compound 10 µM) was 880 nM. For the same compound, the viability, T/C (second compound 0.0316 µM, first compound 0.00316 µM) was 96.6%, the viability, T/C (second compound 0.0316 µM, first compound 0.01 µM) was 96% and the viability, T/C [1] was 79.6%. It also gave a viability, T/C [2] of 67.8%, a viability, T/C [3] of 57.4% and a viability, T/C [4] of 47.3%. For the same compound, the viability, T/C (second compound 0.1 µM, first compound 0.00316 µM) was 106%, the viability, T/C (second compound 0.1 µM, first compound 0.01 µM) was 95.1% and the viability, T/C [5] was 86.5%. For the same compound, the viability, T/C [6] was 73.8%, the viability, T/C [7] was 57.1% and the viability, T/C [8] was 45.8%. It also gave a viability, T/C (second compound 0.316 µM, first compound 0.00316 µM) of 94.9%, a viability, T/C (second compound 0.316 µM, first compound 0.01 µM) of 92.2% and a viability, T/C [9] of 89.8%. For the same compound, the viability, T/C [10] was 73.9%, the viability, T/C [11] was 56.2% and the viability, T/C [12] was 46%. It also gave a viability, T/C (second compound 1 µM, first compound 0.00316 µM) of 102%, a viability, T/C (second compound 1 µM, first compound 0.01 µM) of 92.6% and a viability, T/C [13] of 91.3%. The viability, T/C [14] was 76%, the viability, T/C [15] was 58.1% and the viability, T/C [16] was 53.3%. For the same compound, the viability, T/C (second compound 3.16 µM, first compound 0.00316 µM) was 96.3%, the viability, T/C (second compound 3.16 µM, first compound 0.01 µM) was 101% and the viability, T/C [17] was 88.2%. For the same compound, the viability, T/C [18] was 73.9%, the viability, T/C [19] was 56% and the viability, T/C [20] was 48.3%. For the same compound, the viability, T/C (second compound 10 µM, first compound 0.00316 µM) was 116%, the viability, T/C (second compound 10 µM, first compound 0.01 µM) was 98.2% and the viability, T/C [21] was 98.5%. For the same compound, the viability, T/C [22] was 81.4%, the viability, T/C [23] was 63.7% and the viability, T/C [24] was 48.2%.
With `CC(C)n1c(=O)n(C)c2cnc3cc(F)c(-c4ccc(OCCCN5CCCCC5)nc4)cc3c21` + Nc1ccc(C#CCN(C(=O)Cc2ncc(C(F)(F)F)cc2C(F)(F)F)c2ccc(F)cc2)nn1 the IC50 (second compound 0.0316 µM) was > 10000 nM, the IC50 (second compound 0.1 µM) was > 10000 nM and the IC50 (second compound 0.316 µM) was > 10000 nM. For the same compound, the IC50 (second compound 1 µM) was > 10000 nM, the IC50 (second compound 3.16 µM) was > 10000 nM and the IC50 (second compound 10 µM) was > 10000 nM. The viability, T/C [1] was 103%, the viability, T/C [2] was 103% and the viability, T/C [3] was 101%. The viability, T/C [4] was 98.2%, the viability, T/C [25] was 85.3% and the viability, T/C [26] was 81.5%. For the same compound, the viability, T/C [5] was 104%, the viability, T/C [6] was 94.9% and the viability, T/C [7] was 98%. The viability, T/C [8] was 98.9%, the viability, T/C [27] was 98.9% and the viability, T/C [28] was 93.7%. The viability, T/C [9] was 104%, the viability, T/C [10] was 102% and the viability, T/C [11] was 96.3%. It also gave a viability, T/C [12] of 94.5%, a viability, T/C [29] of 94% and a viability, T/C [30] of 87.7%. For the same compound, the viability, T/C [13] was 111%, the viability, T/C [14] was 104% and the viability, T/C [15] was 96.8%. For the same compound, the viability, T/C [16] was 97.8%, the viability, T/C [31] was 97% and the viability, T/C [32] was 84.9%. For the same compound, the viability, T/C [17] was 98.4%, the viability, T/C [18] was 104% and the viability, T/C [19] was 98.1%. It also gave a viability, T/C [20] of 101%, a viability, T/C [33] of 90% and a viability, T/C [34] of 92.1%. The viability, T/C [21] was 106%, the viability, T/C [22] was 97.4% and the viability, T/C [23] was 108%. It also gave a viability, T/C [24] of 103%, a viability, T/C [35] of 90.7% and a viability, T/C [36] of 73.7%.
`CC1COCCN1c1cc(-c2ccnn2C)c2ccnc(-c3ccn[nH]3)c2n1` (stereo unspecified) + Nc1ccc(C#CCN(C(=O)Cc2ncc(C(F)(F)F)cc2C(F)(F)F)c2ccc(F)cc2)nn1 showed an IC50 (second compound 0.0316 µM) of 298 nM, an IC50 (second compound 0.1 µM) of 275 nM and an IC50 (second compound 0.316 µM) of 267 nM. It also gave an IC50 (second compound 1 µM) of 178 nM, an IC50 (second compound 3.16 µM) of 275 nM and an IC50 (second compound 10 µM) of 458 nM. It also gave a viability, T/C [1] of 95.7%, a viability, T/C [2] of 60.6% and a viability, T/C [3] of 51%. For the same compound, the viability, T/C [4] was 43.9%, the viability, T/C [25] was 47.7% and the viability, T/C [26] was 44.4%. For the same compound, the viability, T/C [5] was 108%, the viability, T/C [6] was 60.8% and the viability, T/C [7] was 49.6%. It also gave a viability, T/C [8] of 48.1%, a viability, T/C [27] of 42.7% and a viability, T/C [28] of 39.5%. For the same compound, the viability, T/C [9] was 96.1%, the viability, T/C [10] was 58.4% and the viability, T/C [11] was 49.7%. It also gave a viability, T/C [12] of 47.5%, a viability, T/C [29] of 46.4% and a viability, T/C [30] of 39.1%. For the same compound, the viability, T/C [13] was 90%, the viability, T/C [14] was 52.3% and the viability, T/C [15] was 49%. The viability, T/C [16] was 47.5%, the viability, T/C [31] was 49.9% and the viability, T/C [32] was 38.4%. It also gave a viability, T/C [17] of 95.9%, a viability, T/C [18] of 61.5% and a viability, T/C [19] of 48.4%. For the same compound, the viability, T/C [20] was 45.2%, the viability, T/C [33] was 43.4% and the viability, T/C [34] was 43.8%. For the same compound, the viability, T/C [21] was 106%, the viability, T/C [22] was 64% and the viability, T/C [23] was 52.4%. For the same compound, the viability, T/C [24] was 49.3%, the viability, T/C [35] was 46.6% and the viability, T/C [36] was 42.5%.
